From article PMC11357638 (Molecules, 2024)

What was measured:
[1] = molecular target: T1, human TRPV1 (hTRPV1) channels (Homo sapiens, UniProt Q8NER1); assay: Whole-cell patch-clamp selectivity, hTRPV1 in HEK293T cells; assay type: cell-based; details: HEK-293T; CA at 1000 μM, current caused by 1 μM capsaicin, mean ± SD, n = 5
T1 construct: expressed in transfected cells; host or cells: HEK293T

hTRPV3 I637A mutant = molecular target: T2, hTRPV3 I637A mutant (Homo sapiens, UniProt Q8NET8, I637A); assay: Whole-cell patch-clamp of hTRPV3 I637A mutant in HEK293T cells; assay type: cell-based
T2 construct: expressed in transfected cells; host or cells: HEK293T
T2 sequence (Q8NET8 1-790 I637A): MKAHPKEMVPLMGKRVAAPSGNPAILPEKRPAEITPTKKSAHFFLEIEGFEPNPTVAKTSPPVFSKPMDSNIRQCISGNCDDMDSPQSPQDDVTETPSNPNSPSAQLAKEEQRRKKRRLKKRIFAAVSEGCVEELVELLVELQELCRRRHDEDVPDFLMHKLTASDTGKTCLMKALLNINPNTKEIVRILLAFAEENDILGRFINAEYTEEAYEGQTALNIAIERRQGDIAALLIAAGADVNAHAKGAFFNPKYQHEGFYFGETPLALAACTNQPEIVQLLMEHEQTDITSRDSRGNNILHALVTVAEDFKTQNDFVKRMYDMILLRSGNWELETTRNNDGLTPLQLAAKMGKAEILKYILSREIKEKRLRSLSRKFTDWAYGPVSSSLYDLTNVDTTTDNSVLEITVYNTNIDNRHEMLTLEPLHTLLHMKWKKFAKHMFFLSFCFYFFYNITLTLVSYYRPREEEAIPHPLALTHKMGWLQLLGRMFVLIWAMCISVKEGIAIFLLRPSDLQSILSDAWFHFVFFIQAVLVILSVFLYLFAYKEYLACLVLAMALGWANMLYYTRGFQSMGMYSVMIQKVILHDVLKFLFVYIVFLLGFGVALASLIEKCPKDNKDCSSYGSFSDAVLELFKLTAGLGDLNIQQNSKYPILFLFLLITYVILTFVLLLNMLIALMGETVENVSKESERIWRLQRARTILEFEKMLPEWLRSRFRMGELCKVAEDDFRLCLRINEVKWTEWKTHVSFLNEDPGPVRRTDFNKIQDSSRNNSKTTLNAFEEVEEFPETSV

[2] = test system: TRPV3-mediated skin inflammation induced by carvacrol; assay: Mouse model of dorsal skin dermatitis induced by skin sensitizer carvacrol; assay type: in vivo, C57BL/6J mice; details: mice, subcutaneous CA 0.1 and 1 mM (100 μL) once a day for 5 days, topical 2% carvacrol, versus carvacrol model group

T1 sequence (Q8NER1 whole entry): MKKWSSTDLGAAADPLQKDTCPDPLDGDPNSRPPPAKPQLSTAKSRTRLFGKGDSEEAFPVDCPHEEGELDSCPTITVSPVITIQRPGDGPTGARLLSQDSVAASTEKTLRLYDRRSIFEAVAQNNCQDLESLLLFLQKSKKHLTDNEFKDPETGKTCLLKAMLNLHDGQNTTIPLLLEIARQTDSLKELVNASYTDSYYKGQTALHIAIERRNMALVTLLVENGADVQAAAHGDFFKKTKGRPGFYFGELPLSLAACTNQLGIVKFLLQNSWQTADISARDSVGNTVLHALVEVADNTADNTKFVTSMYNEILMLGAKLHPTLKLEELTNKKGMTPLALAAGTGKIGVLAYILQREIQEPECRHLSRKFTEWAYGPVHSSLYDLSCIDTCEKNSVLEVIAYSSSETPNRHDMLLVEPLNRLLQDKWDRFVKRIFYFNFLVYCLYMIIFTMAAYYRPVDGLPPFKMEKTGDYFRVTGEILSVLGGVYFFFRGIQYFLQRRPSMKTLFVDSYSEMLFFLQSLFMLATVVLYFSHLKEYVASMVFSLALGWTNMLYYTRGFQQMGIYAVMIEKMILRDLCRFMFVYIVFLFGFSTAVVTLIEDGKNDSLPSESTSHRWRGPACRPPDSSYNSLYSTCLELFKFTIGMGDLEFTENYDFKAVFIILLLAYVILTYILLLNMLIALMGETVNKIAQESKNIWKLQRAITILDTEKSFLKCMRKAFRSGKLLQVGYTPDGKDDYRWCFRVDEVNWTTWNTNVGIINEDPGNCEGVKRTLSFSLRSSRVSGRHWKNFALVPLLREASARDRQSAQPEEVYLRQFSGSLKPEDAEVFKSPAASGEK

inhibition at 1000 µM [1]: ~20% | IC50 (hTRPV3 I637A mutant; I637A hTRPV3, 50 μM 2-APB, +80 mV, Hill fit, read-out: IC50, inhibition of I637A mutant outward currents): 306 ± 61.1 µM | channel current inhibition by 500 μM CA compared to WT (hTRPV3 I637A mutant; I637A mutant, 50 μM 2-APB, 500 μM CA): significantly diminished
Structure (SMILES): O=C(O)/C=C/c1ccc(O)c(O)c1 [CA, caffeic acid]
epidermal thickness ([2]; H&E sections): reduced epidermal thickness | dermatitis scores [2]: significantly reduced the dermatitis scores
